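Dose response: 5 concentrations. Exposure: 48 h. Format: 96-well plates. Endpoint: linear interpolation; highest concentration if not reached. TGI marks complete inhibition of growth.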
Experiments:
Test in all cases: inhibition of tumour cell growth, NCI panel, 48 h
[1] = tested on: 786-0 renal
[2] = tested on: A498 renal
[3] = tested on: A549 NSCLC
[4] = tested on: ACHN renal
[5] = tested on: BT-549 breast
[6] = tested on: CAKI-1 renal
[7] = tested on: CCRF-CEM leukemia
[8] = tested on: COLO 205 colon
[9] = tested on: DU-145 prostate
[10] = tested on: EKVX NSCLC
[11] = tested on: HCC-2998 colon
[12] = tested on: HCT-116 colon
[13] = tested on: HCT-15 colon
[14] = tested on: HOP-62 NSCLC
[15] = tested on: HOP-92 NSCLC
[16] = tested on: HS 578T breast
[17] = tested on: HT29 colon
[18] = tested on: IGROV1 ovarian
[19] = tested on: KM12 colon
[20] = tested on: LOX IMVI melanoma
[21] = tested on: MALME-3M melanoma
[22] = tested on: MCF7 breast
[23] = tested on: MDA-MB-231 breast
[24] = tested on: MDA-MB-435
[25] = tested on: MDA-N
[26] = tested on: NCI-H226 lung
[27] = tested on: NCI-H23 lung
[28] = tested on: NCI-H460 lung
[29] = tested on: NCI-H522 lung
[30] = tested on: NCI/ADR-RES ovarian
[31] = tested on: OVCAR-3 ovarian
[32] = tested on: OVCAR-4 ovarian
[33] = tested on: OVCAR-5 ovarian
[34] = tested on: OVCAR-8 ovarian
[35] = tested on: PC-3 prostate
[36] = tested on: RXF 393 renal
[37] = tested on: SF-268 CNS
[38] = tested on: SF-295 CNS
[39] = tested on: SK-MEL-2 melanoma
[40] = tested on: SK-MEL-28 melanoma
[41] = tested on: SK-MEL-5 melanoma
[42] = tested on: SK-OV-3 ovarian
[43] = tested on: SN12C renal
[44] = tested on: SNB-19 CNS
[45] = tested on: SNB-75 CNS
[46] = tested on: SW-620 colon
[47] = tested on: T-47D breast
[48] = tested on: TK-10 renal
[49] = tested on: U251 CNS
[50] = tested on: UACC-257 melanoma
[51] = tested on: UACC-62 melanoma
[52] = tested on: UO-31 renal

`CCCCCC(=O)OCC1(CO)C/C(=C/CC(C(C)C)C(C)C)C(=O)O1` (configuration not stated) was tested, and the TGI [1] was greater than 75 µM, the TGI [2] was greater than 75 µM and the TGI [3] was greater than 75 µM. For the same molecule, the TGI [4] was greater than 75 µM, the TGI [5] was greater than 75 µM and the TGI [6] was 66.8 µM. For the same molecule, the TGI [7] was 68.7 µM, the TGI [8] was greater than 75 µM and the TGI [9] was greater than 75 µM. The TGI [10] was greater than 75 µM, the TGI [11] was greater than 75 µM and the TGI [12] was greater than 75 µM. The TGI [13] was greater than 75 µM, the TGI [14] was greater than 75 µM and the TGI [15] was greater than 75 µM. The TGI [16] was greater than 75 µM, the TGI [17] was greater than 75 µM and the TGI [18] was 37.2 µM. It also gave a TGI [19] of 37.4 µM, a TGI [20] of 20.5 µM and a TGI [21] of 65.6 µM. The TGI [22] was greater than 75 µM, the TGI [23] was greater than 75 µM and the TGI [24] was greater than 75 µM. For the same molecule, the TGI [25] was greater than 75 µM, the TGI [26] was greater than 75 µM and the TGI [27] was greater than 75 µM. The TGI [28] was greater than 75 µM, the TGI [29] was 27.7 µM and the TGI [30] was greater than 75 µM. It also gave a TGI [31] greater than 75 µM, a TGI [32] greater than 75 µM and a TGI [33] greater than 75 µM. For the same molecule, the TGI [34] was greater than 75 µM, the TGI [35] was greater than 75 µM and the TGI [36] was greater than 75 µM. It also gave a TGI [37] greater than 75 µM, a TGI [38] greater than 75 µM and a TGI [39] greater than 75 µM. For the same molecule, the TGI [40] was greater than 75 µM, the TGI [41] was greater than 75 µM and the TGI [42] was greater than 75 µM. For the same molecule, the TGI [43] was greater than 75 µM, the TGI [44] was greater than 75 µM and the TGI [45] was greater than 75 µM. For the same molecule, the TGI [46] was greater than 75 µM, the TGI [47] was greater than 75 µM and the TGI [48] was greater than 75 µM. It also gave a TGI [49] greater than 75 µM, a TGI [50] greater than 75 µM and a TGI [51] greater than 75 µM. For the same molecule, the TGI [52] was 38.2 µM.
